# From the SangsterLogP compilation
# Test: method code SF-HPLC, from DOI: 10.1016/j.ejmech.2006.12.027, PMID: 17306423
row,Compound,logP
1,CC1(C)N(O)C(c2ccc(Cl)cc2Cl)=[N+]([O-])C1(C)C,1.93
2,CC1(C)N(O)C(c2cccc([N+](=O)[O-])c2)=[N+]([O-])C1(C)C,1.64
3,CC1(C)N(O)C(c2ccccc2[N+](=O)[O-])=[N+]([O-])C1(C)C,0.91
4,CC1(C)N(O)C(c2ccco2)=[N+]([O-])C1(C)C,0.62
5,CC1(C)N(O)C(c2ccccc2F)=[N+]([O-])C1(C)C,0.82
6,COc1ccc(C2=[N+]([O-])C(C)(C)C(C)(C)N2O)cc1OC,1.15
7,CC1(C)N(O)C(c2ccc3c(c2)OCO3)=[N+]([O-])C1(C)C,1.51
8,CC1(C)N(O)C(c2cccc(O)c2)=[N+]([O-])C1(C)C,1.14
9,CC1(C)N(O)C(c2cccnc2)=[N+]([O-])C1(C)C,0.51
10,CC1(C)N(O)C(c2ccccc2)=[N+]([O-])C1(C)C,1.37
11,CC1(C)N(O)C(c2ccccc2O)=[N+]([O-])C1(C)C,1.17

# The remaining lines, values ahead:
row,logP,Compound
1,1.9,Cc1ccc(C2=[N+]([O-])C(C)(C)C(C)(C)N2O)cc1
2,1.14,COc1cc(C2=[N+]([O-])C(C)(C)C(C)(C)N2O)ccc1O
3,1.68,CC1(C)N(O)C(c2ccc([N+](=O)[O-])cc2)=[N+]([O-])C1(C)C
4,2.33,CC1(C)N(O)C(c2ccc(Cl)cc2)=[N+]([O-])C1(C)C
5,2.02,CN(C)c1ccc(C2=[N+]([O-])C(C)(C)C(C)(C)N2O)cc1
6,2.46,CC1(C)N(O)C(c2ccc(Br)cc2)=[N+]([O-])C1(C)C
7,-0.52,CC1(C)N(O)C(c2ccc(OCC(=O)O)cc2)=[N+]([O-])C1(C)C
8,0.92,COc1ccc(C2=[N+]([O-])C(C)(C)C(C)(C)N2O)cc1O
9,0.77,COc1ccc(C2=[N+]([O-])C(C)(C)C(C)(C)N2O)c(OC)c1
10,0.62,CC1(C)N(O)C(c2ccc(O)cc2)=[N+]([O-])C1(C)C
11,1.62,COc1ccc(C2=[N+]([O-])C(C)(C)C(C)(C)N2O)cc1
